Patent publication US20130005710A1, “AMINOPYRIDINE DERIVATIVE” (priority 2009, published 2013)

Each compound was assayed on rat mixed glial culture (assay: Neurogenesis promoting effect in rat mixed glial culture (neuronal differentiation, beta-tubulin III ELISA)). Settings: 1 μM compound + rhIGF-1 100 ng/ml, 3 days; control (only rhIGF-1) = 100%; absorbance 450 nm.
Type: cell-based
Description: The hippocampus and the cerebral cortex were excised from each of 3-day-old SD rats. A cell suspension was prepared therefrom using a neuron dispersion kit (Sumitomo Bakelite Co., Ltd., MB-X9901) and inoculated at concentration of 10^5 cells/well to a 96-well plate coated with type I collagen (AGC Techno Glass Co., Ltd., 4860-010). The cells were cultured in a growth medium (D-MEM/F12 containing 10% FBS and PS) at 37° C. for 4 days under 5% CO2 conditions.
After the culture, the medium was replaced by a differentiation medium (D-MEM/F12 containing PS), and rhIGF-1 (R&D Systems, 291-G1-250, final concentration: 100 ng/ml) and 1 μM compound were added thereto. The cells were further cultured for 3 days. The cultured cells were fixed in 4% paraformaldehyde-PBS (Muto Pure Chemicals Co., Ltd.), subjected to membrane permeation treatment with 0.1% Triton X-100 PBS, and blocked with Block Ace solution (DS Pharma Biomedical Co., Ltd., UK-B80). Anti-neuron-specific class III beta-tubulin Antibody (R&D Systems, MAB1195, clone Tuj-1) was diluted 1000-fold and used as a primary antibody. Anti-Mouse Ig, HRP-Linked F(ab′)2 Fragment Sheep (GE Healthcare, NA9310) was diluted 10000-fold and used as a secondary antibody. A plate washer (BIO-TEK INSTRUMENTS ELX405) was used in washing operation. TMB Microwell Peroxidase Substrate System (Kirkegaard & Perry Laboratories, 50-76-00) was used in color reaction, which was performed for 10 minutes and stopped by addition of 1 M phosphoric acid. Absorbance at 450 nm was measured using a plate reader (Labsystems Multiskan BICHROMATIC).
The rate of increase in the absorbance of the compound-supplemented group (compound+rhIGF-1) relative to that of a compound-unsupplemented group (control, only rhIGF-1) as 100% was determined in terms of % control.

Point of comparison: `COc1ccc(N2CCOC(c3ccc(C(F)(F)F)cc3)C2)c(-c2ccc(N(C)C)cc2)n1` (single isomer, unassigned) [Example 5, 4-(6-methoxy-3-{2-[4-(trifluoromethyl)phenyl]morpholin-4-yl}pyridin-2-yl)-N,N-dimethylaniline], “Ratio of absorbance of compound-supplemented group to control (%)” value 765%. Against it:
- COc1ccc(N2CCOC(c3ccc(C(F)(F)F)cc3)C2)c(-c2ccc(N(C)C)cc2)n1 (single isomer, unassigned) [Example 6, 4-(6-methoxy-3-{2-[4-(trifluoromethyl)phenyl]morpholin-4-yl}pyridin-2-yl)-N,N-dimethylaniline] — lower, 134%

Same assay, conditions: Rattus norvegicus, 72 h, 1 μM compound + rhIGF-1 100 ng/ml, 3 days; control (only rhIGF-1) = 100%; absorbance 450 nm; read-out: Ratio of absorbance of compound-supplemented group to control (%)

Point of comparison: `COc1ccc(N2CCN(c3ccc(OC)nc3-c3ccc(C(C)C)cc3)CC2)cc1` [Example 51, 1-{6-methoxy-2-[4-(1-methylethyl)phenyl]pyridin-3-yl}-4-(4-methoxyphenyl)piperazine], activity at 1 µM 856%. Against it:
- COc1ccc(N2CCOC(c3cccc(C(F)(F)F)c3)C2)c(-c2ccc(N(C)C)cc2)n1 (centres unmarked) [Example 2, 4-(6-methoxy-3-{2-[3-(trifluoromethyl)phenyl]morpholin-4-yl}pyridin-2-yl)-N,N-dimethylaniline] — lower, 448%
- COc1ccc(C2CN(c3ccc(OC)nc3-c3ccc(N(C)C)cc3)CCO2)cc1 (centres unmarked) [Example 3, 4-{6-methoxy-3-[2-(4-methoxyphenyl)morpholin-4-yl]pyridin-2-yl}-N,N-dimethylaniline] — lower, 303%
- COc1ccc(N2CCOC(Cc3cccc(C(F)(F)F)c3)C2)c(-c2ccc(N(C)C)cc2)n1 (centres unmarked) [Example 9, 4-(6-methoxy-3-{2-[3-(trifluoromethyl)benzyl]morpholin-4-yl}pyridin-2-yl)-N,N-dimethylaniline] — lower, 321%
- CCOC(=O)N1CCN(c2ccc(OC)nc2-c2ccc(N(C)C)cc2)CC1c1ccc(OC)cc1 (centres unmarked) [Example 13, Ethyl 4-{2-[4-(dimethylamino)phenyl]-6-methoxypyridin-3-yl}-2-(4-methoxyphenyl)piperazine-1-carboxylate] — lower, 285%
- COc1ccc(C2CN(c3ccc(OC)nc3-c3ccc(N(C)C)cc3)CCN2)cc1 (centres unmarked) [Example 14, 4-{6-methoxy-3-[3-(4-methoxyphenyl)piperazin-1-yl]pyridin-2-yl}-N,N-dimethylaniline] — lower, 260%
- COc1ccc(N2CCN(c3ccc(Cl)cc3)CC2)c(-c2ccc(N(C)C)cc2)n1 [Example 24, 4-{3-[4-(4-chlorophenyl)piperazin-1-yl]-6-methoxypyridin-2-yl}-N,N-dimethylaniline] — lower, 462%
- COc1ccc(N2CCN(c3ccc(OC)c(OC)c3)CC2)c(-c2ccc(N(C)C)cc2)n1 [Example 26, 4-{3-[4-(3,4-dimethoxyphenyl)piperazin-1-yl]-6-methoxypyridin-2-yl}-N,N-dimethylaniline] — lower, 259%
- COc1ccc(CC2CN(c3ccc(OC)nc3-c3ccc(N(C)C)cc3)CCN2C)cc1 (centres unmarked) [Example 34, 4-{6-methoxy-3-[3-(4-methoxybenzyl)-4-methylpiperazin-1-yl]pyridin-2-yl}-N,N-dimethylaniline] — lower, 783%
- COc1ccc(N2CCN(c3ccc(OC)nc3-c3ccc(OC(F)(F)F)cc3)CC2)cc1 [Example 49, 1-(4-methoxyphenyl)-4-{6-methoxy-2-[4-(trifluoromethoxy)phenyl]pyridin-3-yl}piperazine] — higher, 887%
- COc1ccc(-c2nc(OC)ccc2N2CCN(c3ccc(OC)cc3)CC2)cc1 [Example 50, 1-[6-methoxy-2-(4-methoxyphenyl)pyridin-3-yl]-4-(4-methoxyphenyl)piperazine] — lower, 546%
- COc1ccc(N2CCN(c3ccc(OC)nc3-c3ccc(OC(C)C)cc3)CC2)cc1 [Example 52, 1-{6-methoxy-2-[4-(1-methylethoxy)phenyl]pyridin-3-yl}-4-(4-methoxyphenyl)piperazine] — lower, 731%
- COc1ccc(N2CCN(c3ccc(OC)nc3-c3ccc4c(c3)CC(C)(C)O4)CC2)cc1 [Example 60, 1-[2-(2,2-dimethyl-2,3-dihydro-1-benzofuran-5-yl)-6-methoxypyridin-3-yl]-4-(4-methoxyphenyl)piperazine] — lower, 218%
- CCOc1ccc(-c2nc(OC)ccc2N2CCN(c3ccc(OC)cc3)CC2)cc1F [Example 62, 1-[2-(4-ethoxy-3-fluorophenyl)-6-methoxypyridin-3-yl]-4-(4-methoxyphenyl)piperazine] — lower, 439%
- COc1ccc(C2(O)CCN(c3ccc(OC)nc3-c3ccc(OC(F)(F)F)cc3)CC2)cc1 [Example 75, 4-(4-methoxyphenyl)-1-{6-methoxy-2-[4-(trifluoromethoxy)phenyl]pyridin-3-yl}piperidin-4-ol] — lower, 249%
- COc1ccc(N2CCCN(c3ccc(OC)nc3-c3ccc(N(C)C)cc3)CC2)cc1 [Example 85, 4-{6-methoxy-3-[4-(4-methoxyphenyl)-1,4-diazepan-1-yl]pyridin-2-yl}-N,N-dimethylaniline] — lower, 385%
- COc1ccc(N2CCCN(c3ccc(OC)nc3-c3ccc(N(C)C)cc3)CC2)c(F)c1 [Example 87, 4-{3-[4-(2-fluoro-4-methoxyphenyl)-1,4-diazepan-1-yl]-6-methoxypyridin-2-yl}-N,N-dimethylaniline] — lower, 224%
- COc1ccc(N2CCCN(c3ccc(OC)c(OC)c3)CC2)c(-c2ccc(N(C)C)cc2)n1 [Example 89, 4-{3-[4-(3,4-dimethoxyphenyl)-1,4-diazepan-1-yl]-6-methoxypyridin-2-yl}-N,N-dimethylaniline] — lower, 379%
- COc1ccc(N2CCN(c3ccc(OC)nc3-c3ccc(N(C)C)cc3)CCC2=O)cc1 [Example 92, 1-{2-[4-(dimethylamino)phenyl]-6-methoxypyridin-3-yl}-4-(4-methoxyphenyl)-1,4-diazepan-5-one] — lower, 449%
- COc1ccc(C2CCN(c3ccc(OC)nc3-c3ccc(N(C)C)cc3)CCN2C)cc1 (centres unmarked) [Example 98, 4-{6-methoxy-3-[5-(4-methoxyphenyl)-4-methyl-1,4-diazepan-1-yl]pyridin-2-yl}-N,N-dimethylaniline] — lower, 397%
- CCOc1ccc(-c2nc(OC)ccc2N2CCC(c3ccc(OC)cc3)N(CC)CC2)cc1 (centres unmarked) [Example 108, 1-[2-(4-ethoxyphenyl)-6-methoxypyridin-3-yl]-4-ethyl-5-(4-methoxyphenyl)-1,4-diazepane] — lower, 773%
- CCOc1ccc(-c2nc(OC)ccc2N2CCN(c3ccc(OC)cc3)CC2)c(F)c1 [Example 113, 1-[2-(4-ethoxy-2-fluorophenyl)-6-methoxypyridin-3-yl]-4-(4-methoxyphenyl)piperazine] — lower, 717%
- COc1ccc(N2CCN(c3ccc(OC)nc3-c3ccc(N(C)C)cc3)CC(C)C2=O)cc1 (centres unmarked) [Example 118, 1-{2-[4-(dimethylamino)phenyl]-6-methoxypyridin-3-yl}-4-(4-methoxyphenyl)-6-methyl-1,4-diazepan-5-one] — lower, 528%
- COc1ccc(N2CCN(c3ccc(OC)nc3-c3ccc(N(C)C)cc3)CC(C)(C)C2)cc1 [Example 119, 4-{6-methoxy-3-[4-(4-methoxyphenyl)-6,6-dimethyl-1,4-diazepan-1-yl]pyridin-2-yl}-N,N-dimethylaniline] — lower, 760%
- COc1ccc(N2CCN(c3ccc(OC)nc3-c3ccc(N(C)C)cc3)CCC2C)cc1 (centres unmarked) [Example 134, 4-{6-methoxy-3-[4-(4-methoxyphenyl)-5-methyl-1,4-diazepan-1-yl]pyridin-2-yl}-N,N-dimethylaniline] — lower, 630%
- COc1ccc(N2CCN(c3c(C)cc(OC)nc3-c3ccc(N(C)C)cc3)CC2)cc1 [Example 159, 4-{6-methoxy-3-[4-(4-methoxyphenyl)piperazin-1-yl]-4-methylpyridin-2-yl}-N,N-dimethylaniline] — lower, 611%
- COc1ccc(N2CCN(c3ccc(OC)nc3-c3ccoc3)CC2)cc1 [Example 160, 1-(2-furan-3-yl-6-methoxypyridin-3-yl)-4-(4-methoxyphenyl)piperazine] — lower, 220%
- CCOc1ccc(-c2nc(OC)cc(C)c2N2CCN(c3ccc(OC)cc3)CC2)cn1 [Example 168, 6′-ethoxy-6-methoxy-3-[4-(4-methoxyphenyl)piperazin-1-yl]-4-methyl-2,3′-bipyridine] — lower, 584%
- COc1ccc(N2CCN(c3ccc(OC)nc3-c3cnn(C)c3)CC2)cc1 [Example 169, 1-[6-methoxy-2-(1-methyl-1H-pyrazol-4-yl)pyridin-3-yl]-4-(4-methoxyphenyl)piperazine] — lower, 255%
- COc1ccc(N2CCN(c3ccc(OC)nc3-c3ccc4c(cnn4C)c3)CC2)cc1 [Example 171, 5-{6-methoxy-3-[4-(4-methoxyphenyl)piperazin-1-yl]pyridin-2-yl}-1-methyl-1H-indazole] — lower, 312%
